# Measurements published in ChEMBL document CHEMBL1201862, “PubChem BioAssay data set” (2004).
#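 Exposure lasted 48 hours, with cells grown in 96-well plates and compounds tested at five concentrations. GI50 is the concentration that inhibits growth by half.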 Active and inactive are the calls of the source. Rule as the data show it: active = GI50 up to about 1.1 µM and inactive = higher.
# Legend:
# Experiment in all cases: DTP human tumour cell line panel, 48 h
# 786-0 = test system: 786-0
# A498 = test system: A498
# A549 = test system: A549
# ACHN = test system: ACHN
# CCRF-CEM = test system: CCRF-CEM
# COLO 205 = test system: COLO 205
# DLD-1 = test system: DLD-1
# DMS-273 = test system: DMS-273
# EKVX = test system: EKVX
# HCC 2998 = test system: HCC 2998
# HCT-116 = test system: HCT-116
# HCT-15 = test system: HCT-15
# HL-60 = test system: HL-60
# HOP-18 = test system: HOP-18
# HOP-92 = test system: HOP-92
# HT-29 = test system: HT-29
# IGROV-1 = test system: IGROV-1
# K562 = test system: K562
# KM-20L2 = test system: KM-20L2
# LOX IMVI = test system: LOX IMVI
# LXFL 529 = test system: LXFL 529
# M14 = test system: M14
# M19-MEL = test system: M19-MEL
# MOLT-4 = test system: MOLT-4
# Malme-3M = test system: Malme-3M
# NCI-H226 = test system: NCI-H226
# NCI-H23 = test system: NCI-H23
# NCI-H522 = test system: NCI-H522
# OVCAR-3 = test system: OVCAR-3
# OVCAR-4 = test system: OVCAR-4
# OVCAR-8 = test system: OVCAR-8
# RPMI-8226 = test system: RPMI-8226
# RXF 393 = test system: RXF 393
# RXF 631 = test system: RXF 631
# SF-268 = test system: SF-268
# SF-295 = test system: SF-295
# SF-539 = test system: SF-539
# SK-MEL-28 = test system: SK-MEL-28
# SK-MEL-5 = test system: SK-MEL-5
# SK-OV-3 = test system: SK-OV-3
# SN12C = test system: SN12C
# SNB-19 = test system: SNB-19
# SNB-75 = test system: SNB-75
# SNB-78 = test system: SNB-78
# SR = test system: SR
# SW-620 = test system: SW-620
# U-251 = test system: U-251
# UACC-257 = test system: UACC-257
# UACC-62 = test system: UACC-62
# UO-31 = test system: UO-31
# XF498 = test system: XF498
# CAKI-1 = test system: CAKI-1
# DMS-114 = test system: DMS-114
# HOP-62 = test system: HOP-62
# KM12 = test system: KM12
# NCI-H460 = test system: NCI-H460
# OVCAR-5 = test system: OVCAR-5
# SK-MEL-2 = test system: SK-MEL-2
# TK-10 = test system: TK-10
compound,measurement,setting,value
C/C(CC(=O)N(C(C)C)C(C)C)=N\NC(=O)c1ccncc1,GI50,786-0,> 100 µM (inactive)
same,GI50,A498,> 100 µM (inactive)
same,GI50,A549,> 100 µM (inactive)
same,GI50,ACHN,> 100 µM (inactive)
same,GI50,CCRF-CEM,> 100 µM (inactive)
same,GI50,COLO 205,> 100 µM (inactive)
same,GI50,DLD-1,> 100 µM (inactive)
same,GI50,DMS-273,> 100 µM (inactive)
same,GI50,EKVX,> 100 µM (inactive)
same,GI50,HCC 2998,> 100 µM (inactive)
same,GI50,HCT-116,> 100 µM (inactive)
same,GI50,HCT-15,> 100 µM
same,GI50,HL-60,> 100 µM (inactive)
same,GI50,HOP-18,> 100 µM (inactive)
same,GI50,HOP-92,> 100 µM (inactive)
same,GI50,HT-29,> 100 µM (inactive)
same,GI50,IGROV-1,> 100 µM (inactive)
same,GI50,K562,> 100 µM (inactive)
same,GI50,KM-20L2,> 100 µM (inactive)
same,GI50,LOX IMVI,> 100 µM (inactive)
same,GI50,LXFL 529,> 100 µM (inactive)
same,GI50,M14,> 100 µM (inactive)
same,GI50,M19-MEL,> 100 µM (inactive)
same,GI50,MOLT-4,> 100 µM (inactive)
same,GI50,Malme-3M,> 100 µM (inactive)
same,GI50,NCI-H226,> 100 µM (inactive)
same,GI50,NCI-H23,> 100 µM (inactive)
same,GI50,NCI-H522,> 100 µM (inactive)
same,GI50,OVCAR-3,> 100 µM (inactive)
same,GI50,OVCAR-4,> 100 µM (inactive)
same,GI50,OVCAR-8,> 100 µM (inactive)
same,GI50,RPMI-8226,> 100 µM (inactive)
same,GI50,RXF 393,> 100 µM (inactive)
same,GI50,RXF 631,> 100 µM (inactive)
same,GI50,SF-268,> 100 µM (inactive)
same,GI50,SF-295,> 100 µM (inactive)
same,GI50,SF-539,> 100 µM (inactive)
same,GI50,SK-MEL-28,> 100 µM (inactive)
same,GI50,SK-MEL-5,> 100 µM (inactive)
same,GI50,SK-OV-3,> 100 µM (inactive)
same,GI50,SN12C,> 100 µM (inactive)
same,GI50,SNB-19,> 100 µM (inactive)
same,GI50,SNB-75,95.7 µM (inactive)
same,GI50,SNB-78,> 100 µM (inactive)
same,GI50,SR,> 100 µM (inactive)
same,GI50,SW-620,> 100 µM (inactive)
same,GI50,U-251,> 100 µM (inactive)
same,GI50,UACC-257,> 100 µM (inactive)
same,GI50,UACC-62,> 100 µM (inactive)
same,GI50,UO-31,> 100 µM (inactive)
same,GI50,XF498,> 100 µM (inactive)
COC(=O)/C=C(/C(=O)OC)C1(C)c2cc(C(=O)OC)c(C(=O)OC)c(N)c2C(=N)N1c1ccccc1 (stereo unspecified),GI50,786-0,28.6 µM (inactive)
same,GI50,A498,31.1 µM (inactive)
same,GI50,A549,42 µM (inactive)
same,GI50,ACHN,18 µM (inactive)
same,GI50,CAKI-1,21.4 µM (inactive)
same,GI50,CCRF-CEM,15.5 µM (inactive)
same,GI50,COLO 205,15.9 µM (inactive)
same,GI50,DLD-1,13.8 µM (inactive)
same,GI50,DMS-114,15.1 µM (inactive)
same,GI50,DMS-273,52.8 µM (inactive)
same,GI50,EKVX,27.1 µM (inactive)
same,GI50,HCC 2998,16.7 µM (inactive)
same,GI50,HCT-116,15.8 µM (inactive)
same,GI50,HCT-15,31.8 µM
same,GI50,HL-60,14.1 µM (inactive)
same,GI50,HOP-18,20.6 µM (inactive)
same,GI50,HOP-62,86.7 µM (inactive)
same,GI50,HOP-92,10.4 µM (inactive)
same,GI50,HT-29,16.7 µM (inactive)
same,GI50,IGROV-1,27.5 µM (inactive)
same,GI50,K562,18.7 µM (inactive)
same,GI50,KM-20L2,17 µM (inactive)
same,GI50,KM12,17.2 µM (inactive)
same,GI50,LOX IMVI,18.2 µM (inactive)
same,GI50,LXFL 529,19 µM (inactive)
same,GI50,M14,17.5 µM (inactive)
same,GI50,M19-MEL,13.9 µM (inactive)
same,GI50,MOLT-4,17.8 µM (inactive)
same,GI50,Malme-3M,17.4 µM (inactive)
same,GI50,NCI-H226,36.2 µM (inactive)
same,GI50,NCI-H23,22.1 µM (inactive)
same,GI50,NCI-H460,39.5 µM (inactive)
same,GI50,NCI-H522,14.2 µM (inactive)
same,GI50,OVCAR-3,17.9 µM (inactive)
same,GI50,OVCAR-5,41.4 µM (inactive)
same,GI50,OVCAR-8,17.4 µM (inactive)
same,GI50,RPMI-8226,21.5 µM (inactive)
same,GI50,RXF 393,17.1 µM (inactive)
same,GI50,RXF 631,29.1 µM (inactive)
same,GI50,SF-268,19.3 µM (inactive)
same,GI50,SF-295,17.9 µM (inactive)
same,GI50,SF-539,22.2 µM (inactive)
same,GI50,SK-MEL-28,18.1 µM (inactive)
same,GI50,SK-MEL-2,36.7 µM (inactive)
same,GI50,SK-MEL-5,> 10 µM (inactive)
same,GI50,SK-OV-3,34 µM (inactive)
same,GI50,SN12C,19.6 µM (inactive)
same,GI50,SNB-19,49 µM (inactive)
same,GI50,SNB-75,29.4 µM (inactive)
same,GI50,SR,22.8 µM (inactive)
same,GI50,TK-10,41.4 µM (inactive)
same,GI50,U-251,20.1 µM (inactive)
same,GI50,UACC-257,> 10 µM (inactive)
same,GI50,UACC-62,24.6 µM (inactive)
same,GI50,UO-31,22.6 µM (inactive)
same,GI50,XF498,14.7 µM (inactive)
Cc1ccccc1C(=O)N1CCN(C(=O)c2ccccc2C)CC1,GI50,786-0,> 100 µM (inactive)
same,GI50,A498,> 100 µM (inactive)
same,GI50,A549,> 100 µM (inactive)
same,GI50,ACHN,> 100 µM (inactive)
same,GI50,CAKI-1,> 100 µM (inactive)
same,GI50,CCRF-CEM,> 100 µM (inactive)
same,GI50,DLD-1,> 100 µM (inactive)
same,GI50,DMS-273,> 100 µM (inactive)
same,GI50,EKVX,> 100 µM (inactive)
same,GI50,HCC 2998,> 100 µM (inactive)
same,GI50,HCT-116,> 100 µM (inactive)
same,GI50,HCT-15,> 100 µM
same,GI50,HL-60,> 100 µM (inactive)
same,GI50,HOP-18,> 100 µM (inactive)
same,GI50,HOP-62,> 100 µM (inactive)
same,GI50,HOP-92,> 100 µM (inactive)
same,GI50,HT-29,> 100 µM (inactive)
same,GI50,IGROV-1,> 100 µM (inactive)
same,GI50,K562,> 100 µM (inactive)
same,GI50,KM-20L2,> 100 µM (inactive)
same,GI50,KM12,> 100 µM (inactive)
same,GI50,LOX IMVI,> 100 µM (inactive)
same,GI50,LXFL 529,> 100 µM (inactive)
same,GI50,M14,> 100 µM (inactive)
same,GI50,M19-MEL,> 100 µM (inactive)
same,GI50,MOLT-4,> 100 µM (inactive)
same,GI50,NCI-H23,> 100 µM (inactive)
same,GI50,NCI-H460,> 100 µM (inactive)
same,GI50,NCI-H522,> 100 µM (inactive)
same,GI50,OVCAR-3,> 100 µM (inactive)
same,GI50,OVCAR-4,> 100 µM (inactive)
same,GI50,OVCAR-5,> 100 µM (inactive)
same,GI50,OVCAR-8,> 100 µM (inactive)
same,GI50,RPMI-8226,> 100 µM (inactive)
same,GI50,RXF 393,> 100 µM (inactive)
same,GI50,RXF 631,> 100 µM (inactive)
same,GI50,SF-268,> 100 µM (inactive)
same,GI50,SF-295,> 100 µM (inactive)
same,GI50,SF-539,> 100 µM (inactive)
same,GI50,SK-MEL-28,> 100 µM (inactive)
same,GI50,SK-MEL-5,> 100 µM (inactive)
same,GI50,SK-OV-3,> 100 µM (inactive)
same,GI50,SN12C,> 100 µM (inactive)
same,GI50,SNB-19,> 100 µM (inactive)
same,GI50,SNB-75,> 100 µM (inactive)
same,GI50,SNB-78,> 100 µM (inactive)
same,GI50,SR,> 100 µM (inactive)
same,GI50,SW-620,> 100 µM (inactive)
same,GI50,TK-10,> 100 µM (inactive)
same,GI50,U-251,> 100 µM (inactive)
same,GI50,UACC-257,> 100 µM (inactive)
same,GI50,UACC-62,> 100 µM (inactive)
same,GI50,UO-31,> 100 µM (inactive)
same,GI50,XF498,> 100 µM (inactive)
